Read-outs that look alike come from different tables or passages of the source.
How the values were obtained:
KRAS G12S = KRAS G12S (Homo sapiens (Human), UniProt P01116+P62937, G12S); assay: Ras-Raf (BRAF RBD) disruption / FRET / MOA assay, KRAS G12S; type: biochemical; conditions: Ras-Raf disruption/FRET/MOA assay; class symbols; read-out: KRAS G12S FRET data IC50
Procedure, shortened: (§1)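 Compound-driven ternary complex of nucleotide-loaded Ras with cyclophilin A, disrupting BRAF RBD binding. 10-point 3-fold dilution from 30 μM final, 3 h at 25° C, then anti-His Eu-W1024 (10 nM) and anti-GST allophycocyanin (50 nM) for 1.5 h. IC50 from TR-FRET ratio decrease versus DMSO.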

KRAS G13D = KRAS G13D (Homo sapiens (Human), UniProt P01116+P62937, G13D); assay: Ras-Raf (BRAF RBD) disruption / FRET / MOA assay, KRAS G13D; type: biochemical
KRAS G13D, sequence (P01116-2 other isoform, or with tags, fused parts or gaps G13D): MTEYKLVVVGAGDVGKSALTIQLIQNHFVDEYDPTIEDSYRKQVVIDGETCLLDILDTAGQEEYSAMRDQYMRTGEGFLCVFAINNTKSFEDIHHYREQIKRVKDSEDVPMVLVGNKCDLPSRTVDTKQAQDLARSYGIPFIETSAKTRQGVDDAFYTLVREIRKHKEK
KRAS G13D, sequence (P62937 whole entry): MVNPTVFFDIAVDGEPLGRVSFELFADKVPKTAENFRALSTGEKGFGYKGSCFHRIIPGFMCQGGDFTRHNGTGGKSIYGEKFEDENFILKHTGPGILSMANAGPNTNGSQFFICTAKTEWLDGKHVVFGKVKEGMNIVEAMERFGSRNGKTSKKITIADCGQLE
Procedure, shortened: as §1

NCI-H358 (K-Ras G12C) = assay: CellTiter-Glo cell viability assay, NCI-H358; type: cell-based, human; conditions: Homo sapiens, NCI-H358, 120 h, NCI-H358, 5-day treatment; class symbols; read-out: Additional H358 Cell Viability assay data (K-Ras G12C, IC50)
Procedure, shortened: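 Luminescent viability readout on day 5 after direct compound addition to plated cells; plates sat ~30 min at room temperature before reading. Values expressed as percent of mean DMSO signal, curves fit with a four-parameter logistic model.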

KRAS G12V = KRAS G12V (Homo sapiens (Human), UniProt P01116+P62937, G12V); assay: Ras-Raf (BRAF RBD) disruption / FRET / MOA assay, KRAS G12V; type: biochemical; conditions: read-out: IC50* KRAS G12V FRET data
KRAS G12V, sequence (P01116-2 other isoform, or with tags, fused parts or gaps G12V): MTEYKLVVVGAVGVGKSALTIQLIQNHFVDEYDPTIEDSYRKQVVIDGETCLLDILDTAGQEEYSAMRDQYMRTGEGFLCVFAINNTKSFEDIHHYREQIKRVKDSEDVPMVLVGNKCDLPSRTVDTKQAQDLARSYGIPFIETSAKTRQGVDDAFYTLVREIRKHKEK
KRAS G12V, sequence (P62937 whole entry): as the sequence (P62937 whole entry) above
Procedure, shortened: as §1

NRAS Q61R = NRAS Q61R (Homo sapiens (Human), UniProt P01111+P62937, Q61R); assay: Ras-Raf (BRAF RBD) disruption / FRET / MOA assay, NRAS Q61R; type: biochemical; conditions: NRAS Q61R; Ras-Raf disruption/FRET/MOA assay; read-out: IC50* NRAS Q61R FRET data
NRAS Q61R, sequence (P01111 whole entry Q61R): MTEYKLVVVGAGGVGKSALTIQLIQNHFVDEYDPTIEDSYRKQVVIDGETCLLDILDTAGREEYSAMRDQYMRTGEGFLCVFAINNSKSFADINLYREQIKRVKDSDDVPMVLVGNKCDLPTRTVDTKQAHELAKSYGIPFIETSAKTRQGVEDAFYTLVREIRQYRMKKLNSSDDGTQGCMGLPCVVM
NRAS Q61R, sequence (P62937 whole entry): as the sequence (P62937 whole entry) above
Procedure, shortened: (§2)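 Compounds (30 μM top final, 10-point 3-fold dilutions) incubated 3 h at 25° C with nucleotide-loaded Ras, cyclophilin A and BRAF RBD. Detection with 10 nM anti-His Eu-W1024 and 50 nM anti-GST allophycocyanin over another 1.5 h. Lowered TR-FRET ratio relative to DMSO wells gives IC50.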

NRAS Q61K = NRAS Q61K (Homo sapiens (Human), UniProt P01111+P62937, Q61K); assay: Ras-Raf (BRAF RBD) disruption / FRET / MOA assay, NRAS Q61K; type: biochemical; conditions: NRAS Q61K; Ras-Raf disruption/FRET/MOA assay; read-out: IC50* NRAS Q61K FRET data
NRAS Q61K, sequence (P01111 whole entry Q61K): as the sequence (P01111 whole entry Q61R) above, with R61K counted along it
NRAS Q61K, sequence (P62937 whole entry): as the sequence (P62937 whole entry) above
Procedure, shortened: as §2

KRAS Q61H = KRAS Q61H (Homo sapiens (Human), UniProt P01116+P62937, Q61H); assay: Ras-Raf (BRAF RBD) disruption / FRET / MOA assay, KRAS Q61H; type: biochemical; conditions: Ras-Raf disruption/FRET/MOA assay; class symbols; read-out: KRAS Q61H FRET data IC50
KRAS Q61H, sequence (P01116-2 other isoform, or with tags, fused parts or gaps Q61H): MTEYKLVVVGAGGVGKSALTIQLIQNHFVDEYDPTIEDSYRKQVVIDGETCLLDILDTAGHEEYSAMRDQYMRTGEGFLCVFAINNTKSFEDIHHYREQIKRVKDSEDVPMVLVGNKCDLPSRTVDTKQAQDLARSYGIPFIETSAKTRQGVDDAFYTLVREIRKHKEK
KRAS Q61H, sequence (P62937 whole entry): as the sequence (P62937 whole entry) above
Procedure, shortened: as §2

[1] = read-out: IC50* KRAS G13D FRET data

KRAS G12S, sequence (P01116-2 other isoform, or with tags, fused parts or gaps G12S): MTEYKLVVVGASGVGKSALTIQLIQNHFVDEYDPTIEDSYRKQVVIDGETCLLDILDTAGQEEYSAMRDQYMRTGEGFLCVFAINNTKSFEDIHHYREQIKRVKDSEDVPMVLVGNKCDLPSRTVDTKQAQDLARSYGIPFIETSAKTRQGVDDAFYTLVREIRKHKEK
KRAS G12S, sequence (P62937 whole entry): as the sequence (P62937 whole entry) above

Row | SMILES | IC50 (KRAS G12S) [µM] | IC50 (KRAS G13D; [1]) [µM] | IC50 (NCI-H358 (K-Ras G12C)) [µM] | IC50 (KRAS G12V) [µM] | IC50 (NRAS Q61R) [µM] | IC50 (NRAS Q61K) [µM] | IC50 (KRAS Q61H) [µM] | IC50 (KRAS G13D; IC50* KRAS G13D FRET data) [µM]
1 | CO[C@@H](C)c1ncccc1-c1c2c3cc(ccc3n1CC(F)(F)F)-c1cc(CF)cc(c1)C[C@H](NC(=O)[C@@H](COC1CN(C(=O)C#CC(C)(C)N(C)C)C1)C(C)C)C(=O)N1CCC[C@H](N1)C(=O)OCC(C)(C)C2 (atropisomer, axis not shown) [Example A589] | > 10 | > 10 | < 0.01 | > 10 | > 10 | > 10 | 1 to 10 | –
2 | CO[C@@H](C)c1ncccc1-c1c2c3cc(ccc3n1CC(F)(F)F)-c1nc(ns1)C[C@H](NC(=O)[C@@H](COC1CN(C(=O)C#CC(C)(C)N(C)C)C1)C(C)C)C(=O)N1CCC[C@H](N1)C(=O)OCC(C)(C)C2 (atropisomer, axis not shown) [Example A590, (2R)-2-(((1-(4-(dimethylamino)-4-methylpent-2-ynoyl)azetidin-3-yl)oxy)methyl)-N-((6^3S,4S,Z)-1^2-(2-((S)-1-methoxyethyl)pyridin-3-yl)-10,10-dimethyl-5,7-dioxo-1^1-(2,2,2-trifluoroethyl)-6^1,6^2,6^3,6^4,6^5,6^6-hexahydro-1^1H-8-oxa-2(5,3)-thiadiazola-1(5,3)-indola-6(1,3)-pyridazinacycloundecaphane-4-yl)-3-methylbutanamide] | 1 to 10 | > 10 | < 0.01 | 1 to 10 | > 10 | 1 to 10 | 1 to 10 | –
3 | C=CC(=O)N1CCO[C@@]2(CCN(C(=O)N(C)[C@H](C(=O)N[C@H]3Cc4nc(cs4)-c4ccc5c(c4)c(c(-c4cccnc4[C@H](C)OC)n5CC(F)(F)F)CC(C)(C)COC(=O)[C@@H]4CCCN(N4)C3=O)C(C)C)C2)C1 (atropisomer, axis not shown) [Example A594] | 0.1 to 1 | – | < 0.01 | 0.1 to 1 | 0.01 to 0.1 | 0.01 to 0.1 | 0.01 to 0.1 | 0.1 to 1
4 | C=CC(=O)N1CCO[C@H]2CN(C(=O)N(C)[C@H](C(=O)N[C@H]3Cc4cccc(n4)-c4ccc5c(c4)c(c(-c4cccnc4[C@H](C)OC)n5CC(F)(F)F)CC(C)(C)COC(=O)[C@@H]4CCCN(N4)C3=O)C(C)C)C[C@H]21 (atropisomer, axis not shown) [Example A595] | 1 to 10 | 1 to 10 | < 0.01 | 1 to 10 | 0.1 to 1 | 0.1 to 1 | 0.1 to 1 | –
5 | C=CC(=O)N1CCO[C@H]2CN(C(=O)N(C)[C@H](C(=O)N[C@H]3Cc4cccc(n4)-c4ccc5c(c4)c(c(-c4cccnc4[C@H](C)OC)n5CC)CC(C)(C)COC(=O)[C@@H]4CCCN(N4)C3=O)C(C)C)C[C@H]21 (atropisomer, axis not shown) [Example A597] | 1 to 10 | 1 to 10 | < 0.01 | 1 to 10 | 0.1 to 1 | 0.1 to 1 | 0.1 to 1 | –
6 | C=CC(=O)N1CCO[C@H]2CN(C(=O)N(C)[C@H](C(=O)N[C@H]3Cc4cccc(c4)-c4ccc5c(c4)c(c(-c4cccnc4[C@H](C)OC)n5CC)CC(C)(C)COC(=O)[C@@H]4CCCN(N4)C3=O)C(C)C)C[C@H]21 (atropisomer, axis not shown) [Example A610] | 1 to 10 | 1 to 10 | < 0.01 | 1 to 10 | 0.1 to 1 | 0.1 to 1 | 0.1 to 1 | –
7 | C=CC(=O)N1CC2(CCN2C(=O)N(C)[C@H](C(=O)N[C@H]2Cc3nc(n(C)n3)-c3ccc4c(c3)c(c(-c3cccnc3[C@H](C)OC)n4CC)CC(C)(C)COC(=O)[C@@H]3CCCN(N3)C2=O)C(C)C)C1 (atropisomer, axis not shown) [Example A612] | 0.1 to 1 | 0.1 to 1 | 0.1 to 1 | 0.1 to 1 | 0.01 to 0.1 | 0.01 to 0.1 | 0.01 to 0.1 | –
8 | CCn1c(-c2cccnc2[C@H](C)OC)c2c3cc(ccc31)N1CCC[C@@H](C[C@H](NC(=O)[C@H](C(C)C)N(C)C(=O)C3(F)CCN(C(=O)C#CC(C)(C)N(C)C)CC3)C(=O)N3CCC[C@H](N3)C(=O)OCC(C)(C)C2)C1 (atropisomer, axis not shown) [Example A615] | > 10 | > 10 | < 0.01 | > 10 | > 10 | > 10 | > 10 | –
9 | C=CC(=O)N(C)CCC1CCN(C(=O)N(C)[C@H](C(=O)N[C@H]2Cc3nc(cs3)-c3ccc4c(c3)c(c(-c3cccnc3[C@H](C)OC)n4CC)CC(C)(C)COC(=O)[C@@H]3CCCN(N3)C2=O)C(C)C)CC1 (atropisomer, axis not shown) [Example A621] | 0.01 to 0.1 | 0.1 to 1 | < 0.01 | 0.01 to 0.1 | 0.01 to 0.1 | 0.01 to 0.1 | < 0.01 | –
10 | CCn1c(-c2cccnc2[C@H](C)OC)c2c3cc(ccc31)-c1csc(n1)C[C@H](NC(=O)[C@H](C(C)C)N(C)C(=O)N1C[C@H]3CN(C(=O)C#CC(C)(C)N(C)C)CC[C@H]31)C(=O)N1CCC[C@H](N1)C(=O)OCC(C)(C)C2 (atropisomer, axis not shown) [Example A624] | 0.1 to 1 | 0.1 to 1 | < 0.01 | 0.1 to 1 | 0.1 to 1 | 0.1 to 1 | 0.1 to 1 | –
11 | CCn1c(-c2cccnc2[C@H](C)OC)c2c3cc(ccc31)-c1csc(n1)C[C@H](NC(=O)[C@H](F)COC1CN(C(=O)C#CC(C)(C)N(C)C)C1)C(=O)N1CCC[C@H](N1)C(=O)OCC(C)(C)C2 (atropisomer, axis not shown) [Example A627] | > 10 | > 10 | < 0.01 | > 10 | > 10 | > 10 | 1 to 10 | –
12 | C=C(C)C(=O)N1CC2(CCN(C(=O)N(C)[C@H](C(=O)N[C@H]3Cc4nc(cs4)-c4ccc5c(c4)c(c(-c4cccnc4[C@H](C)OC)n5CC)CC(C)(C)COC(=O)[C@@H]4CCCN(N4)C3=O)C(C)C)CC2)C1 (atropisomer, axis not shown) [Example A651] | 0.1 to 1 | 0.1 to 1 | 0.01 to 0.1 | 0.1 to 1 | 0.1 to 1 | 0.01 to 0.1 | 0.01 to 0.1 | –
13 | C=CC(=O)N(C)C[C@H]1CCN(C(=O)N(C)[C@H](C(=O)N[C@H]2Cc3nc(cs3)-c3ccc4c(c3)c(c(-c3cccnc3[C@H](C)OC)n4CC)CC(C)(C)COC(=O)[C@@H]3CCCN(N3)C2=O)C(C)C)C1 (atropisomer, axis not shown) [Example A653] | 0.1 to 1 | 0.1 to 1 | 0.01 to 0.1 | 0.1 to 1 | 0.1 to 1 | 0.01 to 0.1 | 0.01 to 0.1 | –
14 | C=CC(=O)N(C)C[C@@H]1CCN(C(=O)N(C)[C@H](C(=O)N[C@H]2Cc3nc(cs3)-c3ccc4c(c3)c(c(-c3cccnc3[C@H](C)OC)n4CC)CC(C)(C)COC(=O)[C@@H]3CCCN(N3)C2=O)C(C)C)C1 (atropisomer, axis not shown) [Example A654] | 0.1 to 1 | 0.1 to 1 | 0.01 to 0.1 | 0.1 to 1 | 0.1 to 1 | 0.01 to 0.1 | 0.01 to 0.1 | –
15 | CCn1c(-c2cccnc2[C@H](C)OC)c2c3cc(ccc31)-c1cccc(c1)C[C@H](NC(=O)[C@@H](COC1CN(C(=O)C#CC(C)(C)N(C)CCO)C1)C(C)C)C(=O)N1CCC[C@H](N1)C(=O)OCC(C)(C)C2 (atropisomer, axis not shown) [Example A657] | > 10 | > 10 | < 0.01 | > 10 | > 10 | > 10 | > 10 | –
16 | CCn1c(-c2cccnc2[C@H](C)OC)c2c3cc(ccc31)-c1csc(n1)C[C@H](NC(=O)[C@@H](COC1CN(C(=O)C#CC(C)(C)N(C)C)C1)OC)C(=O)N1CCC[C@H](N1)C(=O)OCC(C)(C)C2 (atropisomer, axis not shown) [Example A660] | 1 to 10 | 1 to 10 | < 0.01 | 0.1 to 1 | 1 to 10 | 0.1 to 1 | 0.1 to 1 | –
17 | C=CC(=O)N1CC[C@@]2(CCN2C(=O)N(C)[C@H](C(=O)N[C@H]2Cc3nc(cs3)-c3ccc4c(c3)c(c(-c3cccnc3[C@H](C)OC)n4CC)CC(C)(C)COC(=O)[C@@H]3CCCN(N3)C2=O)C(C)C)C1 (atropisomer, axis not shown) [Example A661] | 0.1 to 1 | 0.1 to 1 | < 0.01 | 1 to 10 | 0.1 to 1 | 0.01 to 0.1 | 0.01 to 0.1 | –
